Assay results taken from patent US6232314A, “Arylalkylpiperazine compounds as antioxidants” (Monash University, priority 1996, dated 2001).

How the values were obtained:
[1] = tested on: methamphetamine-induced loss of neostriatal tyrosine hydroxylase activity; settings: mice; Sonsalla et al., 1991; cited from earlier work
[2] = Gotti et al., 1988; cited from earlier work
[3] = target: NMDA receptor-ionophore complex (polyamine-sensitive ifenprodil binding site); assay: NMDA assay: competitive binding against [125I]ifenprodil in rat cortical membranes; settings: 30 min, 20° C., pH 7.7
Procedure: The NMDA receptor-ionophore complex consists of a number of interacting domains, including one for polyamines where ifenprodil binds to exert its non-competitive antagonism.
The purified material was stored in methanol at -20° C.
Incubations were for 30 min. at 20° C., in triplicate, employing 12 concentrations of competing drugs. Non-specific binding was defined with 10 mM spermine. Assays were terminated by rapid filtration through GF/B filter paper and washing.

[4] = tested on: polyamine sensitive binding site of the NMDA receptor complex; settings: Carter et al., Reynolds et al., Robinson et al.; cited from earlier work

Compound: CC(C(O)c1ccc(O)cc1)N1CCC(Cc2ccccc2)CC1 (stereo not shown) [ifenprodil]
- protection from methamphetamine-induced loss of neostriatal tyrosine hydroxylase activity [1]: protect mice from the methamphetamine-induced loss of neostriatal tyrosine hydroxylase activity
- neuroprotective properties / antiischaemic [2]: neuroprotective properties in models of neurodegeneration following ischaemia
- Ki [3]: 19.5 ± 1.2 µM
- interaction with the polyamine sensitive site of the NMDA receptor complex [4]: interacting with the polyamine sensitive binding site of the NMDA receptor
